Assay results from patent US20100311678A1, “METHODS AND COMPOSITIONS FOR TREATING CANCER AND MODULATING SIGNAL TRANSDUCTION AND METABOLISM PATHWAYS” (priority 2007, published 2010).
Entries after “also recorded” stand apart in the source; their conditions may differ.

Key:
[1] = system: adult rat dissociated dorsal root ganglion (DRG) neurons; test: Intracellular delivery of fluorescent doxorubicin into dissociated DRG neurons with the TRPM8 agonist menthol (micrographs); type: cell-based; conditions: 2 mM doxorubicin/100 mM L-menthol for 10 minutes vs 2 mM doxorubicin alone for 20 minutes; fluorescence micrographs, FIG. 1
Description: FIG. 1 is a series of micrographs showing intracellular delivery of doxorubicin a fluorescent antiproliferative agent into adult rat dissociated dorsal root ganglion (DRG) neurons. The DRG neurons were treated with vehicle control (FIG. 1A), 2 mM doxorubicin (Adriamycin®) for 20 minutes (FIG. 1B), or 2 mM doxorubicin/100 mM L-menthol for 10 minutes (FIG. 1C). […] The size and number of the fluorescently labeled neurons are similar to those of TRPM8 expressing neurons.
The selective administration of compounds or agents that are cytotoxic to cancer cells is accomplished by the co-administration of menthol, an agonist of the large-pore cation channel receptor TRPM8, along with the antiproliferative agent doxorubicin (Adriamycin®). […] Once doxorubicin is within a cell it enters the nucleus where it binds to DNA.

[2] = system: adult rat dissociated dorsal root ganglion (DRG) neurons; test: Intracellular delivery of fluorescent doxorubicin into dissociated DRG neurons with the TRPV1 agonist capsaicin (micrographs); type: cell-based; conditions: 2 mM doxorubicin/1 mM capsaicin for 5 minutes vs 2 mM doxorubicin alone for 20 minutes; fluorescence micrographs, FIG. 2
Description: FIG. 2 is a series of micrographs showing intracellular delivery of doxorubicin into adult rat dissociated dorsal root ganglion (DRG) neurons. The DRG neurons were treated with vehicle control (FIG. 2A), 2 mM doxorubicin (Adriamycin®) for 20 minutes (FIG. 2B), or 2 mM doxorubicin (Adriamycin®)/1 mM capsaicin for 5 minutes (FIG. 2C). […] The size and number of the fluorescently labeled neurons are similar to those of TRPV1 expressing neurons.
The selective administration of compounds or agents that are cytotoxic to cancer cells is accomplished by the co-administration of capsaicin, an agonist of the large-pore cation channel receptor TRPV1, along with doxorubicin (Adriamycin®).

COc1cccc2c1C(=O)c1c(O)c3c(c(O)c1C2=O)C[C@@](O)(C(=O)CO)C[C@@H]3O[C@H]1C[C@H](N)[C@H](O)[C@H](C)O1 [doxorubicin]
intracellular delivery/accumulation of doxorubicin [1]: only entered into cells in the presence of menthol; also recorded: intracellular accumulation of the doxorubicin only into those DRG neurons that express TRPM8 | intracellular delivery/accumulation of doxorubicin [2]: only entered into cells in the presence of capsaicin; also recorded: intracellular accumulation of the doxorubicin only into those DRG neurons that express TRPV1
